Results from ChEMBL document CHEMBL5393453, “Compositions and methods of using the same for treatment of neurodegenerative and mitochondrial disease” (2021).
Active and inactive are the calls of the source. No cut-off for these calls is given here.

Key:
HeLa [1] = assay: Induction of mitophagy in human HeLa Mito-Keima/YFP-Parkin cells treated with FCCP/oligomycin measured by FACS analysis; format: functional, cell-based
[2] = system: Primary hippocampal neuron; assay: Protection against PFFs induced alpha-synuclein fibril formation in C57BL/6 mouse derived primary hippocampal neurons assessed as reduction in phosphorylated S129 alpha-synuclein monomer level at 0.1 to 25 uM measured after 6 days; format: functional, cell-based; settings: dose 0.1-25 µM, time 6.0 day
[3] = Cytotoxicity against human HeLa cells expressing YFP parkin treated with FCCP/ oligomycin assessed as highest safety dose by DAPI staining analysis; format: toxicity, cell-based; settings: read-out: Activity
[4] = system: Primary hippocampal neuron; assay: Protection against PFFs induced alpha-synuclein fibril formation in C57BL/6 mouse derived primary hippocampal neurons assessed as reduction in phosphorylated S129 alpha-synuclein level at 0.1 to 25 uM measured after 6 days; format: functional, cell-based; settings: dose 0.1-25 µM, time 6.0 day
[5] = system: Primary hippocampal neuron; assay: Protection against PFFs induced alpha-synuclein fibril formation in C57BL/6 mouse derived primary hippocampal neurons assessed as reduction in phosphorylated S129 alpha-synuclein (250-12) level at 0.1 to 25 uM measured after 6 days; format: functional, cell-based; settings: dose 0.1-25 µM, time 6.0 day
[6] = Cytotoxicity against human HeLa cells expressing YFP parkin assessed as highest safety dose by DAPI staining analysis; format: toxicity, cell-based; settings: read-out: Activity
[7] = Cytotoxicity against human HeLa cells expressing YFP parkin in presence of FCCP/oligomycin at 25 uM assessed as maximum cell death by DAPI staining analysis relative to control; format: toxicity, cell-based
HeLa [8] = assay: Induction of mitophagy in human HeLa Mito-Keima/YFP-Parkin cells treated with FCCP/oligomycin measured by FACS analysis relative to DMSO; format: functional
[9] = system: Primary hippocampal neuron; assay: Protection against PFFs induced alpha-synuclein fibril formation in C57BL/6 mouse derived primary hippocampal neurons assessed as reduction in phosphorylated S129 alpha-synuclein level at 1.56 to 12.5 uM measured after 6 days; format: functional, cell-based; settings: dose 1.56-12.5 µM, time 6.0 day
[10] = AUClast in C57BL/6 mouse at 50 mg/kg, po administered as single dose by mass spectrometry; format: ADME, organism-based; set-up: dose 50 mg/kg, route po; settings: in vivo
[11] = Cmax in C57BL/6 mouse at 50 mg/kg, po administered as single dose by mass spectrometry; format: ADME, organism-based; set-up: dose 50 mg/kg, route po; settings: in vivo
HeLa [12] = assay: Induction of mitophagy in human HeLa YFP-Parkin cells treated with FCCP/oligomycin assessed as cells with parkin recruited to mitochondria at 60 mins by FACS analysis; format: functional, cell-based; settings: 1 h
[13] = Cmax in C57BL/6 mouse at 10 mg/kg, po administered as single dose by mass spectrometry; format: ADME, organism-based; set-up: dose 10 mg/kg, route po; settings: in vivo
[14] = AUClast in C57BL/6 mouse at 10 mg/kg, po administered as single dose by mass spectrometry; format: ADME, organism-based; set-up: dose 10 mg/kg, route po; settings: in vivo
HeLa [15] = assay: Induction of mitophagy in human HeLa Mito-Keima cells treated with FCCP/oligomycin measured by FACS analysis; format: functional, cell-based

For `FC(F)(F)c1cc2c(N[C@H]3c4ccccc4CC[C@@H]3N3CC4(COC4)C3)ncnc2[nH]1`, which EC50 (HeLa [1]) is on record?
The EC50 was 300 nM.

For `C[C@H]1CN([C@H]2CCc3ccccc3[C@@H]2Nc2ncnc3[nH]c(C(F)(F)F)cc23)CCO1` (single isomer, unassigned), which Activity [2] is on record?
The Activity was “Active”.

What about the MNTC [3] of the same molecule?
Its MNTC is 9.1 µM.

And the Activity [4]?
The Activity was “Active”.

What about the Activity [5] of the same molecule?
Its Activity is “Active”.

And the MNTC [6]?
Its MNTC is 25 µM.

For `COC1CN([C@@H]2COc3ccccc3[C@H]2Nc2ncnc3[nH]c(C4CC4)cc23)C1`, which Emax at 25 µM [7] is on record?
Its Emax at 25 µM is 22.5%.

What about the MNTC [3] of the same molecule?
Its MNTC is 25 µM.

And the MNTC [6]?
The MNTC was 25 µM.

Which “fold change (FC)” value (HeLa [8]) does the source give for `FC(F)(F)c1cc2c(N[C@@H]3c4ccccc4CC[C@H]3N3CCOCC3)ncnc2[nH]1` (racemic) here?
The value was 9.53.

And the MNTC [6]?
Its MNTC is 13.9 µM.

Which “fold change (FC)” value (HeLa [8]) does the source give for `FC(F)(F)c1cc2c(N[C@H]3c4ccccc4CC[C@@H]3N3CC4(CCOCC4)C3)ncnc2[nH]1` (single isomer, unassigned) here?
The value was 3.95.

Which results are given for `c1ccc2c(c1)OC[C@H](C1CCOCC1)[C@H]2Nc1ncnc2[nH]c(C3CC3)cc12` (single isomer, unassigned)?
Activity [2]: Active; MNTC [3]: 21.5 µM; Activity [4]: Active; Activity [5]: Active; MNTC [6]: 25 µM

Which results are given for `Fc1ccc2c(c1)CC[C@H](N1CCOCC1)[C@H]2Nc1ncnc2[nH]c(C3CC3)cc12` (single isomer, unassigned)?
fold change (FC) (HeLa [8]): 5.24; MNTC [3]: 2.8 µM; MNTC [6]: 25 µM

Which Activity [2] does the source give for `COC1CN([C@H]2CCc3ccccc3[C@@H]2Nc2ncnc3[nH]c(C(F)(F)F)cc23)C1` here?
The Activity was “Active”.

And the MNTC [3]?
Its MNTC is 8.3 µM.

And the Activity [4]?
Its Activity is “Active”.

What about the Activity [5] of the same molecule?
Its Activity is “Active”.

And the MNTC [6]?
The MNTC was 8.3 µM.

Which “fold change (FC)” value (HeLa [8]) does the source give for `Fc1ccc2c(c1)CC[C@H](N1CCOCC1)[C@H]2Nc1ncnc2[nH]c(C(F)(F)F)cc12` (single isomer, unassigned) here?
Its value is 5.11.

And the MNTC [3]?
The MNTC was 8.3 µM.

And the MNTC [6]?
The MNTC was 25 µM.

Which Activity [9] does the source give for `FC(F)(F)c1cc2c(NC3CCCc4ccccc43)ncnc2[nH]1` (single isomer, unassigned) here?
The Activity was “Active”.

And the “fold change (FC)” value (HeLa [8])?
Its value is 4.43.

What about the AUC(0-t) [10] of the same molecule?
Its AUC(0-t) is 30.5 µM·h.

And the Cmax [11]?
The Cmax was 6.98 µM.

And the EC50 (HeLa [12])?
Its EC50 is 1740 nM.

What about the Cmax [13] of the same molecule?
Its Cmax is 0.49 µM.

And the AUC(0-t) [14]?
The AUC(0-t) was 1.79 µM·h.

And the EC50 (HeLa [15])?
The EC50 was 371 nM.

Which Activity [2] does the source give for `COC1CN([C@@H]2COc3ccccc3[C@H]2Nc2ncnc3[nH]c(C(F)(F)F)cc23)C1` here?
The Activity was “Active”.

And the MNTC [3]?
The MNTC was 21.4 µM.

What about the Activity [4] of the same molecule?
The Activity was “Active”.

What about the Activity [5] of the same molecule?
The Activity was “Active”.

What about the MNTC [6] of the same molecule?
The MNTC was 25 µM.

Which results are given for `FC(F)(F)c1cc2c(N[C@H]3c4ccccc4CC[C@@H]3N3C[C@H]4COC[C@H]4C3)ncnc2[nH]1` (single isomer, unassigned)?
fold change (FC) (HeLa [8]): 5.44; MNTC [3]: 2.8 µM; MNTC [6]: 25 µM

What does the source list for `Fc1ccc2c(c1)CC[C@@H](N1CCOCC1)[C@@H]2Nc1ncnc2[nH]c(C(F)(F)F)cc12` (single isomer, unassigned)?
fold change (FC) (HeLa [8]): 4.67; MNTC [3]: 25 µM; MNTC [6]: 25 µM
